Data as given in patent publication US20260078120A1, “SUBSTITUTED PYRIDOPYRIMIDINONES” (MIRATI THERAPEUTICS, INC., priority 2022, published 2026).

Columns and labels:
Format in all cases: cell-based
[1] = system: T47D (PI3Kα H1047R mutant) cells; assay: Inhibition of pAKT formation, alphaLISA SureFire Ultra AKT 1/2/3 (pS473), T47D cells; conditions: Homo sapiens, T47D, T47D (PI3Kα H1047R mutant) cells; inhibition of pAKT (pS473) formation; approximately one hour or 24 hours treatment; read-out: T47D pAKT (H1047R mutant) IC50
Summary of the method: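 AKT Ser473 phosphorylation was quantified by alphaLISA SureFire Ultra after roughly 1 h or 24 h compound exposure at 37 °C. Cells were T47D (12,000/well in HBSS), treated with a 10-point 1:4 series starting at 10.4 μM. Percent of control used alpelisib background and DMSO reference, and IC50 came from four-parameter logistic fitting.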

[2] = system: MKN1 (PI3Kα E545K mutant) cells; assay: Inhibition of pAKT formation, alphaLISA SureFire Ultra AKT 1/2/3 (pS473), MKN1 cells; conditions: Homo sapiens, MKN-1; MKN1 (PI3Kα E545K mutant) cells; inhibition of pAKT (pS473) formation; approximately one hour or 24 hours treatment; read-out: MKN1 (E545K) pAKT IC50
Procedure: The ability of a compound of Formula (I) to inhibit the formation of pAKT was measured using alphaLISA Surefire Ultra AKT 1/2/3 (pS473) Assay Kit (#ALSU-PAKT-B50K) was obtained from Perkin Elmer (Waltham, MA).
To prepare assay plates for pAKT alphaLISA assays, cells were trypsinized, resuspended in fresh media, and viable cells were counted utilizing trypan blue exclusion. Prior to seeding, cells were washed with PBS and resuspended in HBSS (Gibco, #14025092). T47D (12,000/w), SKBR3(12,000/w), or MKN1(24,000/w) cells were seeded at 12 μl per well in a solid white flat bottom 384 cell culture plate (Perkin Elmer #6007680).
Immediately after seeding, cells were dosed using an Echo Liquid Handler (Beckman Coulter) with compounds at a […] starting concentration and serially diluted (1:4) for a total of 10 concentrations. […] Cells were incubated with the compounds (solubilized in DMSO) for approximately one hour or 24 hours at 37° C. After one hour (or 24 hours) of treatment, cells were lysed with 3 μl of the 5× lysis buffer (provided and incubated at room temperature for 15 min on a microtiter plate shaker). Once cells were sufficiently lysed, 7.5 μl of the acceptor bead mix (made using the manufacturers recommended dilutions) was added to each well and left on the microtiter plate shaker for 1 min prior to incubating plates at room temperature for one hour, in the absence of light. After one hour of incubation with the acceptor bead mix, 7.5 μl of the donor bead mix (made using the manufacturers recommended dilutions) was added to each well and left on the microtiter plate shaker for 1 min prior to incubating plates at room temperature overnight in the absence of light. Plates were then imaged the following day using a CLARIOstar microplate reader (BMG Labtech, Germany).
Percent of control values were calculated by subtracting the average signal from the positive control (alpelisib) treated wells from all treated wells (including DMSO control wells) and then divided by the average signal from the vehicle DMSO treated control wells. Percent of vehicle control values were plotted as log (inhibitor) vs. response-Variable slope (four parameters) for curve fitting and IC50 values were determined using XLfit.
Key: N.D. =not determined

[3] = system: SKBR3 (PI3Kα wild type) cells; assay: Inhibition of pAKT formation, alphaLISA SureFire Ultra AKT 1/2/3 (pS473), SKBR3 cells; conditions: Homo sapiens, SK-BR-3; Inhibition of pAKT in SKBR3 (PI3Kα wild type) cells; read-out: SKBR3 (WT) pAKT IC50 (nM) (H1047R mutant) IC50
Summary of the method: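 Cells seeded in HBSS (SKBR3 12,000/well, MKN1 24,000/well) and dosed immediately, 10-point 1:4 series from […], for about 1 h or 24 h at 37 °C. pAKT S473 by alphaLISA after lysis; signal normalised to alpelisib and DMSO controls, IC50 by four-parameter fit.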

[4] = system: T47D (PI3Kα H1047R mutant) cells; assay: CellTiter-Glo 2.0 luminescent cell viability assay, 72 hours, T47D cells; conditions: Homo sapiens, T47D, 72 h, T47D (PI3Kα H1047R mutant) cells, CellTiter-Glo, approximately 72 hours; read-out: T47D (H1047R mutant) Viability IC50
Summary of the method: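 Viability was measured by CellTiter-Glo 2.0 luminescence after approximately 72 h of compound exposure at 37° C. Plating was 1000 cells per well the day before dosing, with ten 1:4 dilutions from a 10 µM top concentration. Values as percent of vehicle were fitted by variable-slope log(inhibitor) regression to give IC50.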

[5] = system: MKN1 (PI3Kα E545K mutant) cells; assay: CellTiter-Glo 2.0 luminescent cell viability assay, 72 hours, MKN1 cells; conditions: Homo sapiens, MKN-1; MKN1 (PI3Kα E545K mutant) cells, CellTiter-Glo, approximately 72 hours; read-out: MKN1 (E545K) Viability IC50
Procedure: This Example illustrates that exemplary compounds of the present invention decrease the viability of cells.
The ability of a compound of Formula (I) to decrease the viability of cells was measured using CellTiter-Glo 2.0 (CTG) Luminescent Cell Viability Assay (#G9241) obtained from Promega (Madison, WI).
To prepare assay plates for viability assays, cells were trypsinized, resuspended in fresh media, and viable cells were counted utilizing trypan blue exclusion. T47D, SKBR3, or MKN1 cells were seeded at 1000 cells in 30 μl per well in a solid white flat bottom 384 cell culture plate (Perkin Elmer #6007680) and incubated at 37° C. overnight.
Assay day 1, cells were dosed using an Echo Liquid Handler (Beckman Coulter) with compounds at a 10 um starting concentration and serially diluted (1:4) for a total of 10 concentrations. Cells were incubated for approximately 72 hours with the compounds (solubilized in DMSO) at 37° C. After 72 hours of treatment, cell plates were equilibrated to room temperature before adding 15 μl of CTG to each well, plates were then covered in aluminum foil to protect from light, incubated at room temperature for 30 minutes on a microtiter plate shaker, and luminescence readings were collected using a CLARIOstar microplate reader (BMG Labtech, Germany). Percent of vehicle control values were plotted as log (inhibitor) vs. response-Variable slope (four parameters) for curve fitting and IC50 values were determined using XLfit.

[6] = system: SKBR3 (PI3Kα wild type) cells; assay: CellTiter-Glo 2.0 luminescent cell viability assay, 72 hours, SKBR3 cells; conditions: Homo sapiens, SK-BR-3, 72 h, SKBR3 (PI3Kα wild type) cells, CellTiter-Glo, approximately 72 hours; read-out: SKBR3 (WT) Viability IC50
Summary of the method: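 Viability measured via CTG luminescence following roughly 72 hours of compound exposure at 37° C. Dosing used a 10 um starting concentration diluted 1:4 over 10 points; percent-of-vehicle data fitted with a variable-slope four-parameter model for IC50.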

Compound | IC50 [1] [µM] | IC50 [2] [µM] | IC50 [3] [nM] | IC50 [4] [µM] | IC50 [5] [µM] | IC50 [6] [µM]
C=CC(=O)N(C)C(C)c1cc(C)cn2c(=O)cc(N3CCCCC3)nc12 (stereo not drawn) [Example 4-2, N-methyl-N-(1-(7-methyl-4-oxo-2-(piperidin-1-yl)-4H-pyrido[1,2-a]pyrimidin-9-yl)ethyl)acrylamide] | > 10 | > 10 | > 10000 | > 10 | > 10 | > 10
Cc1cc(C(C)NC(=O)CCl)c2nc(N3CCCCC3)cc(=O)n2c1 (stereo not drawn) [Example 4-3, 2-chloro-N-(1-(7-methyl-4-oxo-2-(piperidin-1-yl)-4H-pyrido[1,2-a]pyrimidin-9-yl)ethyl)acetamide] | > 10 | > 10 | > 10000 | > 10 | 6.14 | 4.84
Cc1cc(C(C)N(C)C(=O)CCl)c2nc(N3CCCCC3)cc(=O)n2c1 (stereo not drawn) [Example 4-4, 2-chloro-N-methyl-N-(1-(7-methyl-4-oxo-2-(piperidin-1-yl)-4H-pyrido[1,2-a]pyrimidin-9-yl)ethyl)acetamide] | > 10 | > 10 | > 10000 | > 10 | 4.29 | 3.86
CC(Nc1ccccc1C(=O)O)c1cc(C2CC2)cn2c(=O)cc(N3CCCCC3)nc12 (stereo not drawn) [Example 5-3, 2-((1-(7-cyclopropyl-4-oxo-2-(piperidin-1-yl)-4H-pyrido[1,2-a]pyrimidin-9-yl)ethyl)amino)benzoic acid] | 0.0321 | > 10 | 3540 | > 10 | > 10 | > 10
CCc1c(N2CCCCC2)nc2c(C(C)Nc3ccccc3C(=O)O)cc(C)cn2c1=O (stereo not drawn) [Example 5-6, 2-((1-(3-ethyl-7-methyl-4-oxo-2-(piperidin-1-yl)-4H-pyrido[1,2-a]pyrimidin-9-yl)ethyl)amino)benzoic acid] | 0.0281 | 6.52 | 9050 | 3.8 | > 10 | > 10
CC(Nc1ccccc1C(=O)O)c1cc(C(F)F)cn2c(=O)cc(N3CCCCC3)nc12 (stereo not drawn) [Example 5-7, 2-((1-(7-(difluoromethyl)-4-oxo-2-(piperidin-1-yl)-4H-pyrido[1,2-a]pyrimidin-9-yl)ethyl)amino)benzoic acid] | 0.0341 | > 10 | > 10000 | 2.63 | 3.28 | 2.95
CCc1cc(C(C)Nc2ccccc2C(=O)O)c2nc(N3CCCCC3)cc(=O)n2c1 (stereo not drawn) [Example 5-8, 2-((1-(7-ethyl-4-oxo-2-(piperidin-1-yl)-4H-pyrido[1,2-a]pyrimidin-9-yl)ethyl)amino)benzoic acid] | 0.017 | > 10 | > 10000 | 3.79 | > 10 | > 10
Cc1cc(C(C)Nc2ccccc2C(=O)O)c2nc(N3Cc4ccccc4C3)c(C)c(=O)n2c1 (stereo not drawn) [Example 5-9, 2-((1-(2-(isoindolin-2-yl)-3,7-dimethyl-4-oxo-4H-pyrido[1,2-a]pyrimidin-9-yl)ethyl)amino)benzoic acid] | 0.021 | 3.5 | 683 | 0.43 | > 10 | > 10
Cc1c(N2CCC(C)(C)CC2)nc2c(C(C)Nc3ccccc3C(=O)O)cccn2c1=O (stereo not drawn) [Example 5-10, 2-((1-(2-(4,4-dimethylpiperidin-1-yl)-3-methyl-4-oxo-4H-pyrido[1,2-a]pyrimidin-9-yl)ethyl)amino)benzoic acid] | 0.0404 | > 10 | 6120 | 1.8 | > 10 | > 10
Cc1c(N2CCCCC2)nc2c(C(C)Nc3ccccc3C(=O)O)cccn2c1=O (stereo not drawn) [Example 5-11, 2-((1-(3-methyl-4-oxo-2-(piperidin-1-yl)-4H-pyrido[1,2-a]pyrimidin-9-yl)ethyl)amino)benzoic acid] | 0.0109 | 3.06 | > 10000 | 0.731 | > 10 | > 10
